What all share (type): cell-based
One data set concerns A549 NSCLC. As to the kind of experiment: MTS cell viability assay, A549 lung cancer cell line. Conditions: Homo sapiens, 48 h. The protocol: (§1) MTS assays were performed for cell viability. To determine if novel pyridopyrazine derivatives have antitumor activities, compounds were screened at 10 μM final concentration with A2058 melanoma and DU145 prostate cancer cell lines. Compounds #16 and #17 were selected to determine IC50 values against lung cancer cell lines, including A549, DMS273, H69, H513, H2461, DMS114, H358 and H2596. In this assay, cells (5000/well) were seeded in 96-well plates, incubated overnight at 37° C. in 5% CO2, and exposed to 10 μM of compounds or in a dose-dependent manner for 48 h. After 48 h treatment with compounds, MTS dye (20 μL/well) was added to 96-well plates. Viable cell numbers were determined by tetrazolium conversion to its formazan dye. Absorbance was measured at 490 nm using an automated ELISA plate reader. Dimethyl sulfoxide (DMSO) was used as the vehicle control. Each experiment was conducted in triplicate. IC50 values were determined using CalcuSyn software (Biosoft).
(In general: Formazan colour is commonly taken as a measure of viable cells.)

The test system of the next data set is H358 NSCLC. Briefly: MTS cell viability assay, H358 lung cancer cell line. Conditions: Homo sapiens, NCI-H358, 48 h. The protocol: as §1
The subject of the next data set is H2461 NSCLC. Briefly: MTS cell viability assay, H2461 lung cancer cell line. To be noted: 48 h. The protocol: as §1
The test system of another data set is H2596 NSCLC. Briefly: MTS cell viability assay, H2596 lung cancer cell line. Conditions: 48 h. As for the experimental part: as §1
The test system of another data set is A2058 melanoma. Briefly: MTS cell viability assay, A2058 melanoma cell line. Conditions: 48 h; for IC50: Homo sapiens, MTS; for Viability % CTL A2058 melanoma: Table 1, screened at 10 μM. As for the experimental part:
as §1

The test system of data set [1] is H69 small cell lung cancer. As to the kind of experiment: MTS cell viability assay, H69 lung cancer cell line. Conditions: 48 h. As for the experimental part:
as §1

The next data set concerns DU145 prostate cancer. Briefly: MTS cell viability assay, DU145 prostate cancer cell line. Conditions: 48 h; for IC50: Homo sapiens, DU-145, DU145 prostate cancer, MTS; for Viability % CTL DU145 prostate: Table 1, screened at 10 μM. As for the experimental part: as §1
For data set [2], the system named is DMS273 small cell lung cancer. Briefly: MTS cell viability assay, DMS273 lung cancer cell line. To be noted: Homo sapiens, DMS-273, 48 h. As for the experimental part: as §1
Data set [3] has as its system DMS114 small cell lung cancer. As to the kind of experiment: MTS cell viability assay, DMS114 lung cancer cell line. Conditions: Homo sapiens, DMS-114, 48 h. The protocol:
as §1

The subject of a further data set is H513 NSCLC. Briefly: MTS cell viability assay, H513 lung cancer cell line. Conditions: 48 h. As for the experimental part: as §1

As to `Cc1nc2nc(Nc3ccccc3)cnc2cc1NC(=O)Nc1cccc(C(F)(F)F)c1` [Compound 16, 1-(6-Methyl-3-(phenylamino)pyrido[2,3-b]pyrazin-7-yl)-3-(3-(trifluoromethyl)phenyl)urea], the IC50 (usually the concentration that inhibits the measured activity by half) in the data set with A549 NSCLC worked out at 1540 nM; with H358 NSCLC, 1970 nM; with H2461 NSCLC it was 1710 nM; in the data set on H2596 NSCLC, 1070 nM; with A2058 melanoma, 1290 nM; in data set [1], 980 nM. Moreover, the IC50 in the data set with DU145 prostate cancer amounted to 1720 nM; in [2], 1090 nM; in [3], 3150 nM; in the data set on H513 NSCLC, 1260 nM. Moreover, the “Viability % CTL A2058 melanoma” value with A2058 melanoma worked out at 4 % CTL. Further, the “Viability % CTL DU145 prostate” value in the data set on DU145 prostate cancer stood at 10 % CTL.

For the compound `Cc1nc2nc(Nc3ccccc3)cnc2cc1NC(=O)Nc1ccc(F)c(Cl)c1` [Compound 17, 1-(3-Chloro-4-fluorophenyl)-3-(6-methyl-3-(phenylamino)pyrido[2,3-b]pyrazin-7-yl)urea], the IC50 in the data set on A549 NSCLC stood at 920 nM; in the data set on H358 NSCLC it was 1180 nM; in the data set with H2461 NSCLC it was 800 nM; in the data set with H2596 NSCLC, 620 nM; with A2058 melanoma, 1130 nM; in [1] it was 510 nM. For the same compound, the IC50 in the data set on DU145 prostate cancer was 1040 nM; in data set [2] it was 320 nM; in data set [3], 720 nM; in the data set with H513 NSCLC, 690 nM. For the same compound, in the data set with A2058 melanoma, the “Viability % CTL A2058 melanoma” value is 2 % CTL. For the same compound, in the data set on DU145 prostate cancer, the “Viability % CTL DU145 prostate” value was found to be 0 % CTL.
